# Patent US20130302442A1, “METHODS OF USING (4S,4AS,5AR,12AS)-4-DIMETHYLAMINO-3,10,12,12A-TETRAHYDROXY-7-[(METHOXY(METHYL)AMINO)-METHYL]-1,11-DIOXO-1,4,4A,5,5A,6,11,12A-OCTAHYDRO-NAPHTHACENE-2-CARBOXYLIC ACID AMIDE” (priority 2012, published 2013)
# Where two headings read alike, the source gives them in different places.
# Assays:
# [1] = test system: methicillin-sensitive S. aureus (MSSA); experiment: In vitro MIC against isolates of MSSA; type: cell-based, Staphylococcus aureus
# [2] = test system: Peptostreptococcus anaerobius; experiment: In vitro MIC testing against anaerobic bacteria; type: cell-based
# [3] = test system: Prevotella melaninogenica; experiment: In vitro MIC testing against anaerobic bacteria; type: cell-based
# S. aureus = experiment: In vitro MIC testing, antibacterial spectrum of activity; type: cell-based, Staphylococcus aureus; conditions: for MIC50 / MIC90 / MIC: Staphylococcus aureus; for MIC50: read-out: MIC50; for MIC90: read-out: MIC90
# Chlamydia pneumoniae = experiment: Susceptibility testing (MIC, MBC) of 10 isolates of C. pneumoniae in HEp-2 cells; type: cell-based
# [4] = test system: Streptococcus constellatus; experiment: In vitro MIC testing against anaerobic bacteria; type: cell-based; conditions: Streptococcus constellatus, ATCC27823
# P. acnes = experiment: In vitro MIC testing, antibacterial spectrum of activity; type: cell-based, Propionibacterium acnes; conditions: for MIC50: read-out: MIC50; for MIC90: read-out: MIC90
# [5] = test system: community-acquired methicillin-resistant S. aureus (MRSA-CA); experiment: In vitro MIC against isolates of MRSA-CA; type: cell-based, Staphylococcus aureus
# [6] = test system: Peptostreptococcus micros; experiment: In vitro MIC testing against anaerobic bacteria; type: cell-based; conditions: Parvimonas micra, read-out: MIC
# Clostridium difficile = experiment: In vitro MIC testing against anaerobic bacteria; type: cell-based
# Bacteroides fragilis = experiment: In vitro MIC testing against anaerobic bacteria; type: cell-based
# Chlamydia trachomatis [7] = experiment: Susceptibility testing (MIC, MBC) of 10 isolates of C. trachomatis in HEp-2 cells; type: cell-based
# E. faecalis = experiment: In vitro MIC testing, antibacterial spectrum of activity; type: cell-based; conditions: for MIC / MIC50 / MIC90: Enterococcus faecalis; for MIC50: read-out: MIC50; for MIC90: read-out: MIC90
# Bifidobacterium longum = experiment: In vitro MIC testing against anaerobic bacteria; type: cell-based; conditions: ATCC15707; Bifidobacterium longum 3968, ATCC 15707
# [8] = test system: hospital-associated methicillin-resistant S. aureus (MRSA-HA); experiment: In vitro MIC against isolates of MRSA-HA; type: cell-based, Staphylococcus aureus; conditions: MRSA-HA (33 isolates)
# Chlamydia trachomatis [9] = experiment: In vitro susceptibility testing of Chlamydia trachomatis in HEp-2 cells (first study); type: cell-based; conditions: Chlamydia trachomatis, C. trachomatis strains, read-out: MIC at which 90% of the strains were inhibited (MIC90)
# Salmonella Spp. = experiment: In vitro MIC testing, antibacterial spectrum of activity; type: cell-based; conditions: Salmonella
# E. cloacae = experiment: as above; type: cell-based; conditions: Enterobacter cloacae; E. cloacae (30 isolates)
# [10] = Peptostreptococcus anaerobius 3526
# [11] = Peptostreptococcus anaerobius 3531
# [12] = Prevotella melaninogenica 3443, read-out: MIC
# [13] = MRSA, S. aureus [MRSA] (31 isolates)
# [14] = MSSA, S. aureus [MSSA] (32 isolates)
# [15] = Cutibacterium acnes, P. acnes [clinical isolates] (55 isolates)
# [16] = Cutibacterium acnes, P. acnes [tetS] (13 isolates)
# [17] = Staphylococcus aureus, MRSA-CA (33 isolates)
# [18] = Bacteroides fragilis 3374, read-out: MIC
# [19] = E. faecalis [VSE] (31 isolates)
# [20] = E. faecalis [tetS] (4 isolates)
structure (smiles),measurement,setting,value
"C[C@H]1c2cccc(O)c2C(=O)C2=C(O)[C@]3(O)C(=O)C(C(N)=O)=C(O)[C@@H](N(C)C)[C@@H]3[C@@H](O)[C@@H]21 [Doxycycline, doxycycline]",MIC Range,[1]; MSSA (34 isolates),0.12 to 8 µg/mL
same,MIC50,"[1]; Staphylococcus aureus, MSSA (34 isolates)",0.25 µg/mL
same,MIC90,"[1]; Staphylococcus aureus, MSSA (34 isolates), read-out: MIC90",0.5 µg/mL
same,MIC,"[1]; Staphylococcus aureus, single strain of doxycycline-resistant MSSA",8 µg/mL
same,MIC,[2]; [10],2 µg/mL
same,MIC,[2]; [11],4 µg/mL
same,MIC,[3],16 µg/mL
same,MIC,[3]; [12],1 µg/mL
same,MIC Range,S. aureus; S. aureus [MRSA] (31 isolates),0.12 to 2 µg/mL
same,MIC Range,S. aureus; S. aureus [MSSA] (32 isolates),0.12 to 8 µg/mL
same,MIC Range,S. aureus; S. aureus [tetR] (10 isolates),1 to 16 µg/mL
same,MIC Range,S. aureus; S. aureus [tetS] (20 isolates),≦0.06-0.25 μg/mL
same,MIC50,S. aureus; [13],0.12 µg/mL
same,MIC90,S. aureus; [13],0.25 µg/mL
same,MIC50,S. aureus; [14],0.12 µg/mL
same,MIC90,S. aureus; [14],0.25 µg/mL
same,MIC50,S. aureus; S. aureus [tetR] (10 isolates),4 µg/mL
same,MIC90,S. aureus; S. aureus [tetR] (10 isolates),16 µg/mL
same,MIC50,S. aureus; S. aureus [tetS] (20 isolates),≤ 0.06 µg/mL
same,MIC90,S. aureus; S. aureus [tetS] (20 isolates),0.25 µg/mL
same,MIC,"S. aureus; S. aureus strain PBS # 1309, tetK",2 µg/mL
same,MIC,"S. aureus; S. aureus strain PBS # 1310, tetM",16 µg/mL
same,MIC,"S. aureus; S. aureus strain PBS # 1739, tet38",2 µg/mL
same,MIC Range,Chlamydia pneumoniae; 72 h,0.0625 to 0.125 µg/mL
same,MIC50,"Chlamydia pneumoniae; Chlamydia pneumoniae, 72 h",0.125 µg/mL
same,MIC90,"Chlamydia pneumoniae; Chlamydia pneumoniae, 72 h",0.125 µg/mL
same,MBC,"Chlamydia pneumoniae; Chlamydia pneumoniae, after passage, read-out: MBC 90%",0.5 µg/mL
same,MBC 90%,Chlamydia pneumoniae; after passage,0.5 µg/mL
same,MBC Range,Chlamydia pneumoniae; after passage,0.25 to 0.5 µg/mL
same,MIC,[4],16 µg/mL
same,MIC,P. acnes; Cutibacterium acnes,8 µg/mL
same,MIC50,P. acnes; [15],0.5 µg/mL
same,MIC90,P. acnes; [15],2 µg/mL
same,MIC50,P. acnes; [16],0.25 µg/mL
same,MIC90,P. acnes; [16],1 µg/mL
same,MIC Range,P. acnes; P. acnes [clinical isolates] (55 isolates),0.25 to 16 µg/mL
same,MIC Range,P. acnes; P. acnes [tetR] (2 isolates),8-8 μg/mL
same,MIC Range,P. acnes; P. acnes [tetS] (2 isolates),0.12 to 0.5 µg/mL
same,MIC Range,P. acnes; P. acnes [tetS] (13 isolates),0.25 to 1 µg/mL
same,MIC Range,[5]; MRSA-CA (33 isolates),0.12 to 8 µg/mL
same,MIC50,[5]; [17],0.12 µg/mL
same,MIC90,[5]; [17],2 µg/mL
same,MIC,"[5]; Staphylococcus aureus, single strain of doxycycline-resistant MRSA-CA",8 µg/mL
same,MIC,[6]; Peptostreptococcus micros 3432,0.12 µg/mL
same,MIC,[6]; Peptostreptococcus micros 3545,0.5 µg/mL
same,MIC,Clostridium difficile; Clostridioides difficile,0.06 µg/mL
same,MIC,Clostridium difficile; Clostridium difficile 3584,0.06 µg/mL
same,MIC,Bacteroides fragilis; [18],0.12 µg/mL
same,MIC,Bacteroides fragilis; Bacteroides fragilis 3479,16 µg/mL
same,MIC Range,Chlamydia trachomatis [7]; 72 h,0.03 to 0.25 µg/mL
same,MIC50,"Chlamydia trachomatis [7]; Chlamydia trachomatis, 72 h",0.06 µg/mL
same,MIC90,"Chlamydia trachomatis [7]; Chlamydia trachomatis, 72 h",0.125 µg/mL
same,MBC,"Chlamydia trachomatis [7]; Chlamydia trachomatis, after passage, read-out: MBC 90%",0.125 µg/mL
same,MBC Range,Chlamydia trachomatis [7]; after passage,0.03 to 0.25 µg/mL
same,MIC Range,E. faecalis; [19],0.12 to 16 µg/mL
same,MIC Range,E. faecalis; E. faecalis [tetR] (6 isolates),2 to 16 µg/mL
same,MIC Range,E. faecalis; [20],≦0.06-0.125 μg/mL
same,MIC,"E. faecalis; E. faecalis strain PBS # 274, tetL",16 µg/mL
same,MIC,"E. faecalis; E. faecalis strain PBS # 276, tetM",8 µg/mL
same,MIC,"E. faecalis; E. faecalis strain PBS # 949, tetS",2 µg/mL
same,MIC50,E. faecalis; [19],8 µg/mL
same,MIC90,E. faecalis; [19],8 µg/mL
same,MIC,Bifidobacterium longum,1 µg/mL
same,MIC Range,[8],0.12 to 1 µg/mL
same,MIC50,[8]; Staphylococcus aureus,0.25 µg/mL
same,MIC90,[8]; Staphylococcus aureus,0.5 µg/mL
same,MIC90,Chlamydia trachomatis [9],0.125 µg/mL
"CN(C)c1ccc(O)c2c1C[C@H]1C[C@H]3[C@H](N(C)C)C(O)=C(C(N)=O)C(=O)[C@@]3(O)C(O)=C1C2=O [Minocycline, minocycline]",MIC,[2]; [10],1 µg/mL
same,MIC,[2]; [11],2 µg/mL
same,MIC50,Salmonella Spp.,2 µg/mL
same,MIC,[3]; [12],1 µg/mL
same,MIC90,E. cloacae,16 µg/mL
same,MIC,[6]; Peptostreptococcus micros 3432,0.06 µg/mL
same,MIC,[6]; Peptostreptococcus micros 3545,0.25 µg/mL
same,MIC,Clostridium difficile; Clostridioides difficile,0.03 µg/mL
same,MIC,Clostridium difficile; Clostridium difficile 3584,0.03 µg/mL
same,MIC,Bacteroides fragilis; [18],0.03 µg/mL
same,MIC,"Bacteroides fragilis; Bacteroides fragilis 3479, read-out: MIC",8 µg/mL
same,MIC Range,E. faecalis; [20],0.25 to 0.5 µg/mL
same,MIC50,E. faecalis; [19],8 µg/mL
same,MIC90,E. faecalis; [19],16 µg/mL
same,MIC,Bifidobacterium longum,1 µg/mL
